# Article PMC12040169 (PLOS Biology, 2025)
# Experiment: in vitro
# Conditions: human, hela cells, % viability
row,Structure (SMILES),"viability at 28.5 h, 10 µM"
1,CCc1ccc(-c2cc3c(=O)[nH]nc(S)n3n2)cc1 [CBK288485],124%
2,S=c1[nH]cnc2c1[nH]c1ccc(Br)cc12 [CBK288487],102%
3,Cn1c(=S)[nH]c2c(-c3ccccc3)c[nH]c2c1=O [CBK288488],103%
4,CCCCC(=O)Nc1ccc(S(N)(=O)=O)cc1 [CBK288490],113%
5,CCCOc1ccc(Br)cc1/C=N/O [CBK288491],110%
6,O=C(NC(=S)N1C[C@@H]2C[C@@H](C1)c1cccc(=O)n1C2)c1ccco1 [CBK288492],110%
7,N#CC1C(=S)NC2=C(CCCC2)C12CCCCC2 (stereo not drawn) [CBK288493],103%
8,COc1ccccc1CN1CCc2[nH]c(=S)[nH]c(=O)c2C1 [CBK288495],104%
9,S=c1cc(SCc2ccccc2Cl)nc[nH]1 [CBK288496],95.2%
10,O=C(O)c1ccc(COc2cccc(/C=N\O)c2)cc1 [CBK288501],91.9%
11,Cc1nnc(S)n(Cc2ccc(F)cc2)c1=O [CBK288502],106%
12,COCc1cc2n[nH]c(=O)n2c(-c2ccccc2)n1 [CBK288507],98.3%
13,O=c1[nH]nc2c(Sc3cccc(F)c3)nccn12 [CBK288508],90.4%
14,CCN(CC)CCOC(=O)NS(=O)(=O)c1ccc(Cl)cc1 [CBK288510],97.6%
15,O=C(CCCCCN1C(=O)c2ccccc2C1=O)NO [CBK288514],80.2%
16,O=c1c([N+](=O)[O-])c[nH]c2nc(-c3ccncc3)nn12 [CBK288531N],87.8%
17,Cc1nc(N)sc1-c1csc(Nc2ccc(Cl)cn2)n1 [CBK288532],61.4%
18,O=[N+]([O-])c1ccc2c(c1)C(O)n1nc(-c3ccncc3)nc1S2 (stereo not drawn) [CBK288533],94.7%
19,Fc1ccc(Cn2nnc(-c3ccncc3)n2)c(Cl)c1 [CBK288534],102%
20,O=c1oc2ccccc2c2nc(-c3ccncc3)ncc12 [CBK288536],108%
21,Nc1[nH]ncc1-c1nnc(Nc2ccc3c(c2)OCO3)o1 [CBK288537],85.1%
22,O=c1[nH]cccc1-c1noc(-c2cnccn2)n1 [CBK288538],90%

row,Structure (SMILES),"viability at 28.5 h, 10 µM"
1,CSc1nnc2n3ncnc3c3c4c(sc3n12)CCCC4C (stereo not drawn) [CBK288542],97.3%
2,O=C(Cc1nc(-c2ccncc2)n[nH]1)NC1CCCCC1 [CBK288544],110%
3,Cc1nc(-c2ccncc2)c2c(C)nn(-c3ccc(F)cc3)c2n1 [CBK288545],89.2%
4,Nc1ncnc2nc(-c3ccncc3)nn12 [CBK288550],102%
5,Cc1c(-c2ccnc(N3CCOCC3)n2)cnc2nc(-c3ccncc3)nn12 [CBK288551],98.6%
6,CC(=O)c1c(C)nc2nc(-c3ccncc3)nn2c1C [CBK288552],106%
7,CCN1CCCC1CNC(=O)C1(O)c2ccccc2NC(=O)N1c1ccccc1 (stereo not drawn) [CBK288554],90.5%
8,CCNc1n[nH]c(N)c1-c1nc(-c2ccc(OC)cc2)no1 [CBK288557],94.2%
9,c1ccc2c(c1)OCC(c1nn3c(-c4ccncc4)nnc3s1)O2 (stereo not drawn) [CBK288560],107%
10,CNc1nc(N(C)C)nc(-n2cnc(SCCOc3ccccc3C)n2)n1 [CBK288564],92.4%
11,Cc1ccc(N2CC(c3nc(-c4ccncc4)no3)CC2=O)cc1Cl (stereo not drawn) [CBK288582],109%
12,O=C(NCc1ccc2c(c1)CCN2C(=O)c1ccncc1)c1cccnc1 [CBK288585],91.4%
13,O=C(NCc1ccc2c(c1)CCN2C(=O)c1ccncc1)c1cccc(F)c1 [CBK288586],102%
14,Cc1cc(N2CCOCC2)nc2ccc(NC(=O)c3ccncc3)cc12 [CBK288587],99.3%
15,Clc1ccc(Nc2nnc(-c3[nH]ncc3NCc3ccncc3)o2)cc1 [CBK288588],99%
16,COCCNC(=O)C1(O)c2ccccc2NC(=O)N1c1cccc(OC)c1 (stereo not drawn) [CBK288589],110%
17,COc1cc(Nc2cc(-n3nc(C)cc3C)ncn2)cc(OC)c1OC [CBK288594],93.2%
18,CCOc1ccccc1-c1noc(-c2nn(-c3ccc(C)cc3)ccc2=O)n1 [CBK288597],95.7%
19,O=C(NCCc1nc2cccnc2n1-c1ccccc1)c1ccncc1 [CBK288599],90.7%
20,Fc1cc(F)cc(-c2nnc(Cc3nc(-c4ccncc4)no3)o2)c1 [CBK288602],98.6%
21,CCC(=O)Nc1ccc(-n2cnc(C(=O)NCc3cccnc3)c2)nc1 [CBK288603],115%
22,O=C(Cc1nnc(-c2ccncc2)o1)NCCC1=CCCCC1 [CBK288605],117%

row,Structure (SMILES),"viability at 28.5 h, 10 µM"
1,Cc1c(-c2noc(-c3ccc4c(c3)OCO4)n2)nnn1Cc1ccccc1 [CBK288609],116%
2,COc1ccccc1CNc1nccc(-n2ccc(C)n2)n1 [CBK288611],111%
3,COc1cccc(CNc2nccc(-n3nc(C)cc3C)n2)c1 [CBK288612],96%
4,Cc1cc(C)n(-c2ccnc(NCc3cccnc3)n2)n1 [CBK288614],109%
5,Cc1cc(C)n(-c2ccnc(NCCc3cccnc3)n2)n1 [CBK288615],94.7%
6,Cc1cccc(Nc2nccc(-n3ccc(C)n3)n2)c1 [CBK288616],79.7%
7,CC(C)n1cnc2ccc(-c3noc(-c4nccc5ccccc45)n3)cc21 [CBK288617],109%
8,O=C(c1ccncc1)N1CCc2cc(-c3csc(C4CC4)n3)ccc21 [CBK288618],94.5%
9,c1cncc(CN2CCCC(OCc3nc(-c4ccncc4)no3)C2)c1 (stereo not drawn) [CBK288621],114%
10,O=C(CN1C(=O)c2ccncc2C1=O)Nc1ccccn1 [CBK288624],89.9%
11,O=C(Nc1nc2ccccc2[nH]1)c1ccncc1 [CBK288626],95.3%
12,Cc1c(CNC(=O)c2cc(-c3ccncc3)nc3ccc(Cl)cc23)cnn1C [CBK288627],99.5%
13,c1ccc(-c2nnc(C3CCNCC3)[nH]2)nc1 [CBK288629G],97%
14,O=C(Nc1ccc2n(c1=O)C[C@H]1C[C@@H]2CN(C(=O)Cc2cccs2)C1)c1ccccc1 [CBK288709],82.4%
15,CC(=O)N1C[C@@H]2C[C@H](C1)c1ccc(NS(=O)(=O)c3cccc(F)c3)c(=O)n1C2 [CBK288710],105%
16,O=C(Nc1ccc(=O)n2c1[C@@H]1C[C@@H](CN(C(=O)COc3ccccc3)C1)C2)c1cncnc1 [CBK288712],109%
17,O=C(Nc1ccc(=O)n2c1[C@@H]1C[C@@H](CN(C(=O)c3ccc(F)cc3)C1)C2)c1cncnc1 [CBK288713],112%
18,CC(=O)N1CCN(CC[C@@H]2CC[C@H](O)[C@@H](C(=O)N(C)Cc3ccccc3)O2)CC1 [CBK288716],93.3%
19,CC(C)NC(=O)[C@H]1O[C@H](CCN2CCOCC2)CC[C@@H]1O [CBK288720],108%
20,O=C([C@H]1O[C@H](CCN2CCN(c3ccccc3)CC2)CC[C@@H]1O)N1CCOCC1 [CBK288724],98.5%
21,O=C(Nc1ccccc1)[C@H]1O[C@H](CCN2CCN(c3ccccc3)CC2)CC[C@@H]1O [CBK288725],84.1%
22,C#CCNC(=O)[C@H]1O[C@H](CCN(C)CC#C)CC[C@@H]1O [CBK288727],89.6%

row,Structure (SMILES),"viability at 28.5 h, 10 µM"
1,C#CCNC(=O)[C@H]1O[C@H](CCN2CCOCC2)CC[C@@H]1O [CBK288729],102%
2,O=C([C@H]1O[C@H](CCN2CCN(c3ccccn3)CC2)CC[C@@H]1O)N1CCCC1 [CBK288730],83.3%
3,O=C(NCc1ccccc1)[C@H]1CN2CCC1C[C@@H]2Cn1cc(-c2ccc(F)cc2)nn1 (stereo partly drawn) [CBK288736],87%
4,CC(C)(C)c1cn(C[C@H]2CC3CCN2C[C@@H]3C(=O)Nc2nccs2)nn1 (stereo partly drawn) [CBK288737],87%
5,O=C(NC1CC1)[C@H]1CN2CCC1C[C@@H]2Cn1cc(-c2cccc(O)c2)nn1 (stereo partly drawn) [CBK288738],79.8%
6,O=C(NC1CC1)[C@H]1CN2CCC1C[C@@H]2Cn1cc(CC2CCCCC2)nn1 (stereo partly drawn) [CBK288739],103%
7,Cn1nc(C2CCCC2)cc1[C@H]1CN2CC[C@H]1C[C@@H]2CNC(=O)N1CCOCC1 [CBK288740],83.4%
8,Cn1nc(C2CCCC2)cc1[C@H]1CN2CC[C@H]1C[C@@H]2CNS(=O)(=O)c1ccccc1 [CBK288741],96.3%
9,CCNC(=O)NC[C@H]1C[C@@H]2CCN1C[C@@H]2c1cc(C2CCCC2)nn1C [CBK288743],93.6%
10,CC(C)NC(=O)NC[C@H]1C[C@@H]2CCN1C[C@@H]2c1cc(C2CCCC2)nn1C [CBK288744],96.5%
11,CC[C@H]1C[N@@]2CC[C@H]1C[C@@H]2CNS(=O)(=O)c1ccc(NC(C)=O)cc1 [CBK288745],82.9%
12,CC[C@H]1C[N@@]2CC[C@H]1C[C@@H]2CNS(=O)(=O)c1cccc2cccnc12 [CBK288747],90.6%
13,CC[C@H]1CN2CC[C@H]1C[C@@H]2CNC(=O)Nc1cccc(C#N)c1 [CBK288748],87.4%
14,C=C[C@H]1C[N@@]2CC[C@H]1C[C@@H]2CNS(=O)(=O)c1cccc(C#N)c1 [CBK288750],103%
15,C=C[C@H]1C[N@@]2CC[C@H]1C[C@@H]2CNS(=O)(=O)c1cccc2cccnc12 [CBK288751],98.2%
16,C#C[C@H]1C[N@@]2CC[C@H]1C[C@@H]2CNS(=O)(=O)c1cccc(C#N)c1 [CBK288753],106%
17,C#C[C@H]1C[N@@]2CC[C@H]1C[C@@H]2CNC(=O)Nc1ccc(C(C)=O)cc1 [CBK288755],114%
18,COc1ccc(-c2cc([C@H]3CN4CC[C@H]3C[C@@H]4CNC(C)=O)n(C)n2)cc1OC [CBK288757],86.3%
19,Cc1ccc(S(=O)(=O)NC[C@H]2C[C@@H]3CC[N@]2C[C@@H]3CN2CCOCC2)cc1 [CBK288758],94.2%
20,O=S(=O)(NC[C@H]1C[C@@H]2CC[N@]1C[C@@H]2CN1CCOCC1)c1cccs1 [CBK288759],90.7%
21,O=S(=O)(NC[C@H]1C[C@@H]2CCN1C[C@@H]2CN1CCOCC1)c1ccccc1 [CBK288760],92.9%
